Test results published in the NIST ThermoML archive (doi:10.1021/acs.jced.5b00242).

How the values were obtained:
[1] = refractive index (Na D-line) (dimensionless); conditions: 101 kPa, Liquid, Standard Abbe refractometry
[2] = Liquid; for viscosity: 101 kPa, Stabinger Viscometer; for mass density: 101.33 kPa, Vibrating tube method

CC[n+]1ccn(C)c1.N[C@@H](CO)C(=O)[O-] [3-ethyl-1-methyl-1H-imidazolium L-serinate]
Conditions | mass density, [2] [kg/m3] | refractive index, [1] | viscosity, [2] [mPa·s]
293.15 K | 1206.8 | 1.52699 | 3796.8
298.15 K | 1203.7 | 1.52565 | 2235.5
303.15 K | 1200.5 | 1.52429 | 1376.2
308.15 K | 1197.3 | 1.52294 | 882.82
313.15 K | 1194 | 1.52159 | 588.27
318.15 K | 1190.9 | 1.52022 | 405.12
323.15 K | 1187.8 | 1.51887 | 287.6
328.15 K | 1184.7 | 1.51755 | 209.91
333.15 K | 1181.7 | 1.5162 | 157.29
338.15 K | 1178.7 | 1.51486 | 119.86
343.15 K | 1175.7 | 1.51353 | 93.36
348.15 K | 1172.8 | 1.5122 | 74.03
353.15 K | 1169.7 | 1.51084 | 59.91
